In data set [1] the target is T1, LecA (Pseudomonas aeruginosa, UniProt Q05097).
T1 construct: LecA was expressed and purified as previously described; made in house
Description: Isothermal titration calorimetry (ITC) of ligand binding to LecA. To be noted: ITC Kd, E-isomer the better binder. The source says:
The interaction of compounds 1–5 with LecA was characterized by ITC analysis for both the E- and Z-isomers. As the initial isomer state of the galactosyl azobenzenes is the E-form, ITC measurements made on E-isomers correspond to 100% purity of them. After 370 nm irradiation to induce the photoizomerisation process, a photostationary state is reached between E- and Z-isomers. For ITC measurements made on Z-isomers, the percentage of isomers is shown in the column Z/E (PSS370) of Table 1. Depending on the corresponding galactosyl azobenzenes, the Z-isomer is pure from 87 to 99%. Spectroscopy measurements were performed on ligand solution just before each experiment to check the efficiency of the isomerization, with results as indicated in Table 2.
Isothermal titration calorimetry: LecA was expressed and purified as previously described. All experiments were performed at 25 °C with an ITC200 isothermal titration calorimeter (Microcal-Malvern Panalytical, Grenoble, France). The lyophilized LecA protein was dissolved in a buffer composed of 20 mM Tris^.HCl (pH 7.5), 100 mM NaCl and 100 μM CaCl2 with 5% or 10% DMSO final. All compounds were first dissolved in DMSO then in same buffer for a final concentration of 5% or 10% DMSO. […]
In general terms: Isothermal titration calorimetry measures the heat released or taken up as one component is titrated into another.

A short description of data set [2]: Photostationary state composition (E/Z ratios) by 1H NMR and UV–vis after irradiation. The class given is physicochemical. To be noted: for Z/E PSS370: after 370 nm irradiation; for E/Z PSS485: after 485 nm irradiation; for E-isomer mixed with the Z-isomer as established by PSS370: Z-isomer samples used for ITC. As to the method:
General experimental details. Commercially available solvents and reagents were used without further purification. Reactions carried out under anhydrous conditions are performed under argon in glassware previously dried in an oven. DMF and THF were previously dried through alumina or molecular sieves-containing cartridges using a solvent purificator MBRAUN SPS-800. All the reactions with azobenzene-containing substrates were carried out in the dark. Reactions were monitored by TLC on Silica Gel 60F-254 plates with detection by UV (254 nm or 365 nm) or by spraying with 10% H2SO4 in EtOH and heating about 30 s at 400–600 °C. Column chromatography purification was performed on CombiFlash® Rf+ and RediSep® RF or RF Gold normal phase silica columns (with UV detection at 254 and 350 nm for all azobenzene derivatives), or by flash column chromatography employing silica gel (60 Å pore size, 40–63 µm). ^1H and ^13C NMR spectra were recorded on a JEOL ECS-400 spectrometer or on Bruker Avance 300 and 400 spectrometers. Structural assignments were made with additional information from gCOSY, HMBC, and gHMQC experiments. High-resolution mass spectra (HRMS) were performed on a Bruker maXis mass spectrometer by the SALSA platform from ICOA laboratory or on an Agilent 1260 Infinity system with a quadrupole time-of-light (Q-TOF) mass analyzer. Melting points were measured with a Köfler bench previously calibrated using the usual standard references or on a digital melting point capillary apparatus. Specific optical rotations were measured in solution using sodium light at 589 nm where no absorption occurred for all compounds. Absorption spectra were recorded on a Cary-5000 spectrophotometer from Agilent Technologies. Photochromic reactions were induced in situ by a continuous irradiation Hg/Xe lamp (Hamamatsu, LC6- or LC8-Lightningcure, 200 W) equipped with narrow band interference filters of appropriate wavelengths: Semrock BP-370/36 for λirr = 370 nm, Semrock FF01-438/24-25 for λirr = 438 nm, Semrock FF01-485/20-25 for λirr = 485 nm. The irradiation power was measured using a photodiode from Ophir (PD300-UV) and corrected after a measurement with an additional Schott long pass filter (LP-545) to measure NIR contribution (PLP) that is let through the Semrock filter (PTotal), considering a 90% transmittance: Pλirr = PTotal − (10/9 × PLP). The photoconversion reaction was followed by a combination of ^1H NMR and UV–vis absorption spectra, realized by successive irradiations at 370 nm (438 or 485 nm). The E/Z ratios were determined by integration of the azobenzene proton signals of each isomer. A quartz cell of 10 mm path length has been used for solution measurement.
The photoconversion yields were measured from a solution of the compounds in deuterated solvent and monitored by ^1H NMR and UV–vis absorption, after successive irradiations at 370 nm (438 nm or 485 nm) in the case of the PSS. The E/Z ratios were determined by integration of characteristic of each isomer.

Data set [3] can be described thus: Fatigue resistance under alternated UV/vis irradiation cycles. The class given is physicochemical. The note with it: alternated UV (370 nm) and visible irradiation cycles, aqueous media. The source says: Figure 2 (Left) Absorption spectra and (right) fatigue resistance of 1 under alternated 370/485 nm irradiations in Tris buffer/DMSO 95:5 at rt: E-1 (black line), PSS370 (blue line), PSS485 (red line). Irradiation conditions at 370 nm: 12.8 mW·cm^−2, 20 s; at 485 nm: 1.5 mW·cm^−2, 480 s.
General procedure for the fatigue resistance measurements
Starting from a solution of compound containing 100% of the E-isomer, the solution was irradiated sequentially at 370 nm and at 485 nm or 438 nm. The absorbance was measured before and after each illumination realized with constant optical length distance. The sequence, which constitutes a cycle, was repeated for a minimum of 10 times.
Fatigue resistance of the compound 2
Figure S15: Left: absorption spectra of E-2 (black line), PSS370 (blue line), PSS438 (red line) in Tris buffer/ DMSO (9/1); Right: Fatigue resistance followed by the absorption band at 3 21 nm under alternate 3 70 nm/438 nm irradiation cycles in Tris buffer/DMSO (9/1). Irradiation conditions: 40 s at P 370 = 14.1 mW cm-2 and 180 s at P 438 […]
Fatigue resistance of the compound 3
Figure S16: Left: absorption spectra of E-3 (black line), PSS 370 (blue line), PSS 485 (red line) in Tris buffer/DMSO (9/1); Right: Fatigue resistance followed by the absorption band at 3 64 nm under alternate 3 70 nm/485 nm irradiation cycles in Tris buffer/DMSO (9/1). […]

A short description of data set [4]: Thermal Z→E isomerization tracked by UV–vis absorption (half-life of Z-isomers). To be noted: Tris buffer with 5% DMSO, pH 7.5, solvent not given; read-out: t1/2 (thermostability of Z-isomer) (converted). The class given is physicochemical. The source says:
The photoswitching properties of galactosyl azobenzenes 1–5 were realized in water or in Tris buffer containing 5 to 10% DMSO, in accordance with the biophysical evaluation conditions by using ITC. All these compounds undergo reversible photoisomerization under UV–vis irradiation in aqueous solution. […] After irradiation at 370 nm to induce the E-to-Z photoisomerization, the band at 353 nm decreases concomitantly to the appearance of two new bands at 312 and 438 nm (Figure 2, blue line). Two isosbestic points can also be observed at 310 and 429 nm. The back Z→E photoisomerization can be achieved by illumination at 485 nm (Figure 2, red line). ^1H NMR spectroscopy has been used to determine the Z/E ratios during irradiation, showing an excellent photoconversion yield of Z/E = 99:1 at PSS370, and E/Z = 87:13 at PSS485 in D2O/5% DMSO (Figure 3). […] All the photophysical properties of compounds 1–5 are summarized in Table 1 (spectra are shown in Figure S1–S24 in Supporting Information File 1). Concerning the meta-substituted azobenzene 2, a 30 nm blue shift is observed for the π→π* transition (λmax = 321 nm) as well as a lower absorption coefficient compared to the para-derivative 1 (Table 1, entries 3 and 4 vs entries 1 and 2), probably due to less-conjugated azobenzene. […]
The half-lif e o f Z -1 at roo m temperatur e wa s the n calculated: […]

For data set [5], the target named is T1, LecA. To be noted: ref [5]–[8][32]; cited from earlier work.

We go through six molecules from PMC11228623, “Photoswitchable glycoligands targeting Pseudomonas aeruginosa LecA” (Beilstein Journal of Organic Chemistry, 2024).

Each structure is given as a SMILES string.

T1 sequence (Q05097 whole entry): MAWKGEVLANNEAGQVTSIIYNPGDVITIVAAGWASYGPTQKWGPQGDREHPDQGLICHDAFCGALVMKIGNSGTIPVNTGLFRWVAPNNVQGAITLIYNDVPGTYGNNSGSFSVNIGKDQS

For `NCCOc1ccc(/N=N/c2ccc(O[C@@H]3O[C@H](CO)[C@H](O)[C@H](O)[C@H]3O)cc2)cc1` [compound 1], the “difference in affinity between E- and Z-isomers” value in data set [1] amounted to 3 fold. In addition, in data set [2] (H2O), the “Z/E PSS370” value is listed as 99/1 and the “E/Z PSS485” value was 87/13. Further, in data set [2] (Tris/DMSO 5%), the “Z/E PSS370” value was 99/1 and the “E/Z PSS485” value is 87/13. For the same molecule, in data set [3], the fatigue resistance result was “no degradation has been observed after more than 10 UV–vis irradiation cycles”.

Turning to `NCCOc1cccc(/N=N/c2cccc(O[C@@H]3O[C@H](CO)[C@H](O)[C@H](O)[C@H]3O)c2)c1` [compound 2], the half-life in data set [4] was 29 days. In data set [2] (Tris/DMSO 5%), the “Z/E PSS370” value is listed as 87/13 and the “E/Z PSS485” value is given as 71/29. In addition, the “Z/E PSS370” value in data set [2] (Tris/DMSO 10%) is 87/13. Also, the “E/Z PSS438” value in data set [2] (Tris/DMSO 10%, after 438 nm irradiation (footnote d)) was 74/26^d. In data set [2], the “E-isomer mixed with the Z-isomer as established by PSS370” value came out at 13%.

Turning to `NCCOc1ccc(/N=N/c2ccc(S[C@@H]3O[C@H](CO)[C@H](O)[C@H](O)[C@H]3O)cc2)cc1` [compound 3], the “difference in affinity between E- and Z-isomers” value in data set [1] worked out at 2 fold. Also, in data set [2] (H2O), the “Z/E PSS370” value is 99/1 and the “E/Z PSS485” value is 73/27. Moreover, in data set [2] (Tris/DMSO 10%), the “Z/E PSS370” value is 99/1 and the “E/Z PSS485” value is listed as 71/29.

Consider `NCCOc1ccc(/N=N/c2cccc(S[C@@H]3O[C@H](CO)[C@H](O)[C@H](O)[C@H]3O)c2)cc1` [compound 4], for which, in data set [2] (Tris/DMSO 10%), the “Z/E PSS370” value is listed as 99/1 and the “E/Z PSS485” value is on record as 72/28.

Consider `NCCOc1ccc(/N=N/c2ccccc2S[C@@H]2O[C@H](CO)[C@H](O)[C@H](O)[C@H]2O)cc1` [compound 5], for which, in data set [2] (Tris/DMSO 10%), the “Z/E PSS370” value is on record as 92/8 and the “E/Z PSS485” value was 60/40. For the same molecule, in data set [2], the “E-isomer mixed with the Z-isomer as established by PSS370” value came to 8%.

In the case of `O=C[C@H](O)[C@@H](O)[C@@H](O)[C@H](O)CO` [ᴅ-galactose], in data set [5], the Kd (as a rule, the constant that tells how readily two partners part at equilibrium) is 34 µM.
